The values that follow come from ChEMBL document CHEMBL3886943, “C2-azaspiro iminothiazine dioxides as BACE inhibitors, compositions, and their use” (2016).

One assay concerns the target Beta-secretase 1 (Homo sapiens, UniProt P56817). The assay can be described thus: This assay monitors the increase of 620 nm fluorescence that resulted from BACE1 cleavage of an APPswedish APPswe mutant peptide FRET substrate (QSY7-[…]-Europium-amide). This substrate contains an N-terminal QSY7 moiety that serves as a quencher of the C-terminal Europium fluorophore (620 nm Em). […] Reactions are initiated by addition of 10 ul of 600 nM QSY7-APPswe-Eu substrate (200 nM final) to give a final reaction volume of 30 ul in a 384 well Nunc HTRF plate. The reactions are incubated at 30° C. for 1.5 hours. The 620 nm fluorescence is then read on a Rubystar HTRF plate reader (BMG Labtechnologies) using a 50 millisecond delay followed by a 400 millisecond acquisition time window. Inhibitor IC50 values are derived from non-linear regression analysis of concentration response curves.

Another assay deals with T1, Beta-secretase 2 (Homo sapiens, UniProt Q9Y5Z0).
T1 sequence (Q9Y5Z0 whole entry): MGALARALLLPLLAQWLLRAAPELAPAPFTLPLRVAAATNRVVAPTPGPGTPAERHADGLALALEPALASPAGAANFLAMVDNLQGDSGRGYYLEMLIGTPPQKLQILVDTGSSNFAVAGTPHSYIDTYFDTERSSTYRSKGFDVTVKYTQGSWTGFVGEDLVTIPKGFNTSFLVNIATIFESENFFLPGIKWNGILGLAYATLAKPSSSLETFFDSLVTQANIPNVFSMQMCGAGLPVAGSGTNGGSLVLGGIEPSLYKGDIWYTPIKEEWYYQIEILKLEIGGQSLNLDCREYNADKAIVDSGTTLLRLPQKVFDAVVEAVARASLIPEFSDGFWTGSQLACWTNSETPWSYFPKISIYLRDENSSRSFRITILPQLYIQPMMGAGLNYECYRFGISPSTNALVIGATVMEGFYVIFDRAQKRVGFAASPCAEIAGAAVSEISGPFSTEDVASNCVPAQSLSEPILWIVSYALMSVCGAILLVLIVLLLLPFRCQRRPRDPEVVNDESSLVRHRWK
The assay is described as follows: DMSO is present at 5% final concentration in the assay. Following laser excitation of sample wells at 320 nm, the fluorescence signal at 620 nm is collected for 400 ms following a 50 us delay on a RUBYstar HTRF plate reader (BMG Labtechnologies). Raw RFU data is normalized to maximum (1.0 nM BACE/DMSO) and minimum (no enzyme/DMSO) RFU values. […] The Ki values are calculated from the IC50 using the Cheng-Prusoff equation.

Beta-secretase 1, sequence (P56817 whole entry): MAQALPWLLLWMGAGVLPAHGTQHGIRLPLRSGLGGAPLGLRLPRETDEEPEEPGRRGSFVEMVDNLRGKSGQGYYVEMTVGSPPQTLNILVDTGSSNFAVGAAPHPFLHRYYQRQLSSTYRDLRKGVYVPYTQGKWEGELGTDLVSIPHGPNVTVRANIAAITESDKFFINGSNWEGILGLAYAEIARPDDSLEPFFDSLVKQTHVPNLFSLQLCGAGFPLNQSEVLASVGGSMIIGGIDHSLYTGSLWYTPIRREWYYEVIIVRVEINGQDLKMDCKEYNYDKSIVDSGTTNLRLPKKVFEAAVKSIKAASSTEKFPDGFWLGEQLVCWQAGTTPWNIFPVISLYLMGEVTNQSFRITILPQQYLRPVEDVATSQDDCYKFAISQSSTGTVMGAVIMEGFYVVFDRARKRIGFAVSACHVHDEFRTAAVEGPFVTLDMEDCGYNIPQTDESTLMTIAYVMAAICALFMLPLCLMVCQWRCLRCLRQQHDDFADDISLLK

Turning to `CN1CCC2(CC1)C(=N)N[C@](C)(c1cc(NC(=O)C(F)F)ccc1F)CS2(=O)=O`, the inhibition constant (Ki) (in general, the dissociation constant of the complex between target and ligand, obtained from inhibition or displacement) was 1710 nM at Beta-secretase 1 and 210 nM on Beta-secretase 2.
